In PMC11237012, “Synthesis and preliminary evaluation of novel PET probes for GSK-3 imaging” (Scientific Reports, 2024):

Assay: Radiochemical stability in isotonic NaCl solution (rad-TLC)
Assay type: physicochemical
Details: 37 °C
Experimental: The stability of PET probes [^18F]2 and [^18F]6 was measured in isotonic NaCl solution (0.9% NaCl) and mouse and human serums at 37 °C for up to 120 min by rad-TLC at 0 min, 30 min, 60 min and 120 min post incubation. The results obtained are presented in Fig. 5 and SI-Figs. S10–S15, SI-Table S1. […] The plausible explanation of the instability of [^18F]6 could be attributed to the covalent interaction of [^18F]6’s SO2F group with primary amines of amino acid residues present in the protein rich mouse and human serums. In fact, in an unrelated study, Zhao et al. reported formation of sulfonamide bond between sulfuryl fluoride and primary amine of conserved lysine residues of different kinases. […] Based on 2’s favorable blood–brain barrier permeability, nanomolar binding affinity and PET probe [^18F]2’s excellent stability in both mouse and human serums, further in vivo evaluations were performed only with PET probe [^18F]2.
Stability of [^18F]2 and [^18F]6 was assessed in isotonic NaCl solution and human and mouse serums. To perform this stability assay, 100 µL of [^18F]2 (~ 37.0 MBq) or 100 µL of [^18F]6 (~ 37.0 MBq) as in final formulation was added to 100 µL of human serum or mouse serum in a microcentrifuge tube. The resultant mixture was incubated at 37 °C for 120 min. To assess the radiochemical stability of the probes, a small aliquot (~ 0.5 µL) was taken out from the mixture in triplicate at 0 min, 30 min, 60 min and 120 min during incubation, and analyzed on a rad-TLC using 0.5:9.5 methanol: chloroform as a mobile phase using i-TLC to estimate the stability of [^18F]2 or [^18F]6 at different time points post-incubation. After Stability preparative processes initial i-TLC development was considered as 0 min.

Measured: Percentage of intact probe

O=C(Nc1cnccc1-c1ccc([18F])cc1)c1ccnc(NC(=O)C2CC2)c1 [[^18F]2]
100 ± 0.0%: 0 min | 30 min | 60 min
